We go through 5 molecules from patent US8067424B2, “Selective inhibitors for cyclin-dependent kinases” (Emory University, priority 2007, dated 2011).

Assay [1] has as its system AMPK. As to the kind of experiment: Kinase screen: AMPK assay. The settings on record: for mean activity remaining (as a percentage of the original activity), AMPK: 10 micromolar compound. It is filed as biochemical. As for the experimental part:
(§1) Generally, the same procedure was used for all assays. Since the total assay volume was 25.5 microliters, 0.5 microliters of inhibitors at 51× assay concentration were added to the plates before any other addition.
(§2) The basic procedure was to add 0.5 microliters inhibitor/control in DMSO to plate. Fifteen microliters of enzyme/substrate/buffer mix were added and incubated for 5 min. Ten microliters MgATP at the relevant concentration were added and incubated for 30 min. The assay was stopped by adding 5 microliters of 3% orthophosphoric acid. The assay was transferred to a p81 filter plate and read in a scintillation counter of 30 sec/well. Note that this assay procedure was not followed for MKK1, which instead involved a two-step assay, and PKC alpha, which required the addition of lipid vesicles.
AMPK assay: AMPK (5-20 mU diluted in 50 mM Hepes pH 7.5, 1 mM DTT, 0.02% Brij35) was assayed against SAMS substrate peptide ([…]) (SEQ ID NO: 11) in a final volume of 25.5 μl containing 50 mM Hepes pH 7.5, 1 mM DTT, 0.02% Brij35, 0.4 mM SAMS peptide, 0.196 mM AMP, 10 mM magnesium acetate and 0.05 mM [33P-g-ATP] (50-1000 cpm/pmole) and incubated for 30 min at room temperature. Assays were stopped by addition of 5 μl of 0.5 M (3%) orthophosphoric acid and then harvested onto P81 Unifilter plates with a wash buffer of 50 mM orthophosphoric acid.

In assay [2] the target is T1, NEK2a (Homo sapiens, UniProt P51955).
T1 sequence (P51955 1-445): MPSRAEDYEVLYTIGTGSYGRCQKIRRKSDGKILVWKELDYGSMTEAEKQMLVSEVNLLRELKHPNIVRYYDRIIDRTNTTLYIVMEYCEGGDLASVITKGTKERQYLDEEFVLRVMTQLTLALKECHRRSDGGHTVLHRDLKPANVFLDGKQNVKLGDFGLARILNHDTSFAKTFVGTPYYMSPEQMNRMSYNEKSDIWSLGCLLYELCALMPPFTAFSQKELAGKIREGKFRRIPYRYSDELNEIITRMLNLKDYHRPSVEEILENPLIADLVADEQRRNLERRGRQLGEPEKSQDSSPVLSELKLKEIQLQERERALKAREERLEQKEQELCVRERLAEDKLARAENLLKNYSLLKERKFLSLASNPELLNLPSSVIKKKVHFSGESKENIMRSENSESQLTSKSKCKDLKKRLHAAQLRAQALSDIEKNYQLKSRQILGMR
The assay is described as follows: Kinase screen: NEK2a assay. Format: biochemical. As for the experimental part:
as §1, §2
NEK2a assay: 5-20 mU of NEK2a (diluted in 50 mM Tris (pH 7.5), 0.1 mM EGTA, 1 mg/ml BSA, 0.1%, b-Mercaptoethanol) was assayed against NEK2a peptide ([…]) (SEQ ID NO: 19) in a final volume of 25.5 μl containing 50 mM Tris (pH 7.5), 0.1 mM EGTA, 0.01% Brij, 0.1%, b-Mercaptoethanol, 300 μM NEK2a peptide, 10 mM magnesium acetate and 0.05 mM [33P-g-ATP] (500-1000 cpm/pmole) and incubated for 30 mins at room temperature. Assays were stopped by addition of 5 µl of 0.5M (3%) orthophosphoric acid. Assays were harvested onto P81 Unifilter plates using a wash buffer of 50 mM orthophosphoric acid.

The subject of assay [3] is VEG-FR. As to the kind of experiment: Kinase screen: VEG-FR assay. The settings on record: 10 micromolar compound. It is filed as biochemical. As for the experimental part: as §1, §2
VEG-FR assay: VEG-FR (5-20 mU diluted in 50 mM Tris pH 7.5, 0.1 mM EGTA, 1 mg/ml BSA) was assayed against a substrate peptide ([…]) (SEQ ID NO: 35) in a final volume of 25.5 μl containing 50 mM Tris pH 7.5, 300 μM substrate peptide, 10 mM magnesium acetate and 0.02 mM [33P-g-ATP] (50-1000 cpm/pmole) and incubated for 30 min at room temperature. Assays were stopped by addition of 5 μl of 0.5 M (3%) orthophosphoric acid and then harvested onto P81 Unifilter plates with a wash buffer of 50 mM orthophosphoric acid.

Assay [4] relates to MCF-7 cell line. The assay is described as follows: cells. Format: cell-based. The settings on record: Homo sapiens; for IC (total growth inhibition): read-out: TGI.
The mark [5] stands for this setting: 10 micromolar compound, read-out: mean activity remaining (as a percentage of the original activity), NEK 2a.
[6] abbreviates: MCF7, 24 h, MCF-7, SRB assay, 24 hours.
Setting [7] is: MCF7, MCF-7, SRB assay, 24 hours, mean of three experiments, read-out: IC50.

The remaining activity is the signal under treatment as a percentage of the control signal. As a reminder, the IC50 is the point on the concentration scale where inhibition reaches its midpoint.

Structures are written as SMILES. Read-outs that look alike come from different tables or passages of the source.

In the case of `CC(C)c1cnn2c(NCc3ccccc3)cc(NCCCCCCCN)nc12` [BS-181], in assay [1] (AMPK, 10 μM), the “Mean Remaining Enzyme Activity (%)” value amounted to 122%. For the same molecule, in assay [2] (NEK2a, 10 μM, read-out: Mean Remaining Enzyme Activity (%)), the remaining activity at 10 µM was determined as 92%.
In the case of `C=C[C@H](CO)Nc1cc(NCc2ccccc2)n2ncc(C(C)C)c2n1` [ICEC0065], the “mean activity remaining (as a percentage of the original activity), AMPK” value in assay [1] is reported as 85%. Also, in assay [3], the “mean activity remaining (as a percentage of the original activity), VEG-FR” value was 101%. Also, the remaining activity at 10 µM in assay [2] (setting [5]) was 96%. In addition, in assay [4] (setting [6]), the LC50 (concentration causing 50% net cell kill) stood at 8.5 µM and the IC (total growth inhibition) amounted to 12 µM. Moreover, the IC50 in assay [4] (setting [7]) was over 100 µM.
As to `CC(C)c1cnn2c(NCc3ccccc3)cc(N[C@@H](CO)[C@H](O)CO)nc12` [ICEC0318, (3S)-3-(7-(Benzylamino)-3-isopropylpyrazolo[1,5-a]pyrimidin-5-ylamino)butane-1,2,4-triol], the “mean activity remaining (as a percentage of the original activity), AMPK” value in assay [1] was 88%. In assay [3], the “mean activity remaining (as a percentage of the original activity), VEG-FR” value amounted to 92%. Also, the remaining activity at 10 µM in assay [2] (setting [5]) amounted to 102%. Moreover, the IC50 in assay [4] (MCF7, 24 h) is under 2 µM. Besides, the IC (total growth inhibition) in assay [4] (setting [6]) was under 2 µM.
As for `CC(C)c1cnn2c(NCc3ccccc3F)cc(NCCCCCN)nc12` [ICEC-0232], the “mean activity remaining (as a percentage of the original activity), AMPK” value in assay [1] amounted to 75%. Also, the “mean activity remaining (as a percentage of the original activity), VEG-FR” value in assay [3] is 105%. Besides, the “mean activity remaining (as a percentage of the original activity), NEK 2a” value in assay [2] (10 micromolar compound) is recorded as 83%.
Regarding `CC[C@H](CO)Nc1cc(NCc2ccccc2)n2ncc(C(C)C)c2n1` [ICEC0067], the “mean activity remaining (as a percentage of the original activity), AMPK” value in assay [1] was determined as 84%. In assay [3], the “mean activity remaining (as a percentage of the original activity), VEG-FR” value is reported as 99%. The remaining activity at 10 µM in assay [2] (setting [5]) stood at 75%. Besides, the IC (total growth inhibition) in assay [4] (setting [6]) worked out at 13 µM. In assay [4] (setting [7]), the IC50 was over 100 µM.
